Test results reported in patent US10266544B2, “Aryl substituted aminomethyl spectinomycin analogs as antibacterial agents” (ST. JUDE CHILDREN'S RESEARCH HOSPITAL, INC., priority 2013, dated 2019).
≈ marks a conversion by molar mass, not a printed value. Structures can show the parent of a compound that is named as a salt. Where two headings read alike, the source gives them in different places.

What was measured:
Type in all cases: cell-based
[1] = tested on: MRSA, Staphylococcus aureus (NRS70); assay: MIC determination, microbroth dilution; details: read-out: MIC MRSA
[2] = tested on: E. coli K12 ΔtolC; assay: microbe, parasite or virus in culture; details: Escherichia coli, read-out: MIC E.c. Δtolc
[3] = tested on: acinetobacter baumannii (ATCC 19606); assay: MIC determination, microbroth dilution; details: ATCC19606
[4] = tested on: Klebsiella pneumoniae (ATCC 33495); assay: MIC determination, microbroth dilution; details: ATCC33495
[5] = tested on: Staphylococcus aureus (ATCC 29213); assay: MIC determination, microbroth dilution
[6] = tested on: M. tuberculosis clinical isolates; assay: microbe, parasite or virus in culture; details: Mycobacterium tuberculosis
[7] = tested on: Bacillus anthracis; assay: microbe, parasite or virus in culture; details: read-out: MIC B.a.
[8] = tested on: Escherichia coli (ATCC 700926); assay: MIC determination, microbroth dilution; details: ATCC700926; Escherichia coli (ATCC 700926); read-out: MIC E.c.
Description: MICs were determined using the microbroth dilution method according to Clinical Laboratory Standards Institute (CLSI; National, C. F. C. L. S., Methods for Dilution Antimicrobial Susceptibility Tests for Bacteria Grow aerobically-Seventh Edition: Approved Standard M7-A7, CLSI, Wayne, Pa., USA, 2008) and were read by visual inspection. Two fold serial dilutions of antibiotic in 100 μL of the appropriate broth media were first prepared in 96-well round bottom microtiter plates (Nalge Nunc International, Rochester, N.Y., USA). An equivalent volume (100 μL) of bacterial broth inocula containing approximately 10^5 bacterial cfu/mL was added to each well to give final concentrations of drug starting at 200 μg/mL and the plates were incubated aerobically at 37° C. M. tuberculosis microtiter plates were incubated for 7 days and all other strains were incubated overnight. After incubations, in all cases the MIC was recorded as the lowest concentration of drug that prevented bacterial growth.

[9] = tested on: Bacillus subtilis (ATCC 23857); assay: MIC determination, microbroth dilution; details: ATCC23857; Bacillus subtilis (ATCC 23857); read-out: MIC B.s.
[10] = tested on: Burkholderia cepacia (ATCC 25416); assay: MIC determination, microbroth dilution; details: Burkholderia cepacia
[11] = tested on: Enterococcus faecalis (ATCC 33186); assay: MIC determination, microbroth dilution
[12] = tested on: Bacillus anthracis, Sterne 34F2; assay: microbe, parasite or virus in culture; details: STERNE34F2, read-out: MIC B.a.
[13] = tested on: Streptococcus pyogenes (ATCC 700294); assay: MIC determination, microbroth dilution; details: ATCC700294; Streptococcus pyogenes (ATCC 700294); read-out: MIC S. py.
[14] = tested on: Streptococcus pneumoniae (R6); assay: MIC determination, microbroth dilution; details: Streptococcus pneumoniae (R6); read-out: MIC S. pn.
[15] = tested on: Proteus vulgaris (ATCC 33420); assay: MIC determination, microbroth dilution; details: ATCC33420
[16] = tested on: Pseudomonas aeruginosa (PA01); assay: MIC determination, microbroth dilution
[17] = tested on: Proteus mirabilis (ATCC 25933); assay: MIC determination, microbroth dilution; details: ATCC25933
[18] = tested on: Stenotrophomonas maltophilia (ATCC 13637); assay: MIC determination, microbroth dilution; details: ATCC13637; Stenotrophomonas maltophilia (ATCC 13637); read-out: MIC S.m.
[19] = Staphylococcus aureus, ATCC29213, read-out: MIC S.a.
[20] = ATCC25416, read-out: MIC B.c., Burkholderia cepacia (ATCC 25416)
[21] = ATCC25416, read-out: MIC B.c., Burkholderia cepacia, Table 6
[22] = ATCC33186, Enterococcus faecalis (ATCC 33186), read-out: MIC E.f.
[23] = ATCC29213, Staphylococcus aureus (ATCC 29213), read-out: MIC S.a.

Compound | MIC ([1]; Staphylococcus aureus (NRS70)) [µg/mL] | MIC ([6]; H37RV, read-out: MIC H37Rv) [µg/mL] | MIC [9] [µg/mL] | MIC [11, 22] [µg/mL] | MIC [12] [µg/mL] | MIC [13] [µg/mL] | MIC [14] [µg/mL] | MIC [5, 23] [µg/mL] | further results
CN[C@@H]1[C@H](O)[C@H](NC)[C@H]2O[C@]3(O)[C@H](O[C@@H]2[C@H]1O)O[C@H](C)C[C@@]3(O)CNCCc1ccc(F)cc1 [compound 33, 3′-(R)-3′-(4-FLUOROphenethylaminomethyl)dihydrospectinomycin Trihydrochloride] | 25 to 50 | 3.1 | 3.1 to 6.3 | 25 | 12.5 | – | – | – | MIC [2]: 6.3 µg/mL; MIC [3]: > 200 µg/mL; MIC [4]: 200 µg/mL; MIC [5, 19]: 12.5 to 25 µg/mL; MIC ([6]; read-out: MIC TN022): 6.3 µg/mL; MIC ([6]; read-out: MIC TN026): 6.3 µg/mL; MIC [7]: 12.5 µg/mL; MIC [8]: 12.5 µg/mL; MIC [10, 20]: ≥ 200 µg/mL; MIC [10, 21]: > 200 µg/mL
CN[C@@H]1[C@H](O)[C@H](NC)C2O[C@]3(O)C(OC2[C@H]1O)O[C@H](C)C[C@@]3(O)CNCc1ccc2ccn(C)c2c1 (some centres unmarked) [compound 43] | 12.5 (≈ 24.7 µM) | 100 (≈ 197 µM) | 12.5 (≈ 24.7 µM) | 100 (≈ 197 µM) | > 200 | 100 (≈ 197 µM) | 200 (≈ 395 µM) | 50 (≈ 98.7 µM) | –
CN[C@@H]1[C@H](O)[C@H](NC)C2O[C@]3(O)C(OC2[C@H]1O)O[C@H](C)C[C@@]3(O)CNCc1ccc2c(c1)OCO2 (some centres unmarked) [compound 36] | > 200 | 50 (≈ 100 µM) | 12.5 (≈ 25.1 µM) | 100 (≈ 201 µM) | > 200 | 25 (≈ 50.2 µM) | 25 (≈ 50.2 µM) | 100 (≈ 201 µM) | –
CN[C@@H]1[C@H](O)[C@H](NC)C2O[C@]3(O)C(OC2[C@H]1O)O[C@H](C)C[C@@]3(O)CNCc1ccc(Cc2ccccc2)cc1 (some centres unmarked) [compound 44] | 25 (≈ 46 µM) | 100 (≈ 184 µM) | 25 (≈ 46 µM) | 25 (≈ 46 µM) | > 200 | 3.13 (≈ 5.76 µM) | 6.25 (≈ 11.5 µM) | 50 (≈ 92 µM) | –
CN[C@@H]1[C@H](O)[C@H](NC)[C@H]2O[C@]3(O)[C@H](O[C@@H]2[C@H]1O)O[C@H](C)C[C@@]3(O)CNCCc1ccc(C)cc1 [compound 32, 3′-(R)-3′-[(4-Methyl)]Phenethylaminomethyl)]Dihydrospectinomycin Trihydrochloride] | – | 3.1 | 3.1 to 6.3 | – | 12.5 | 3.1 to 6.3 | 6.3 | – | MIC ([1]; Staphylococcus aureus): 12.5 to 25 µg/mL; MIC [2]: 50 to 100 µg/mL; MIC [15]: 100 µg/mL; MIC [3]: > 200 µg/mL; MIC [4]: > 200 µg/mL; MIC [5, 19]: 12.5 µg/mL; MIC ([6]; read-out: MIC TN022): 6.3 µg/mL; MIC ([6]; read-out: MIC TN026): 6.3 µg/mL; MIC [7]: 12.5 µg/mL; MIC [8]: 100 to 200 µg/mL; MIC [16]: ≥ 200 µg/mL; MIC [17]: > 200 µg/mL; MIC [10, 20]: > 200 µg/mL; MIC [10, 21]: ≥ 200 µg/mL; MIC ([11]; Enterococcus faecalis, ATCC33186, read-out: MIC E.f.): 12.5 µg/mL; MIC [18]: 6.3 µg/mL
CN[C@@H]1[C@H](O)[C@H](NC)C2O[C@]3(O)C(OC2[C@H]1O)O[C@H](C)C[C@@]3(O)CNCc1ccc(C)o1 (some centres unmarked) [compound 46] | > 200 | 25 (≈ 54.6 µM) | 50 (≈ 109 µM) | 100 (≈ 219 µM) | > 200 | 12.5 (≈ 27.3 µM) | 12.5 (≈ 27.3 µM) | 50 (≈ 109 µM) | –
CN[C@@H]1[C@H](O)[C@H](NC)C2O[C@]3(O)C(OC2[C@H]1O)O[C@H](C)C[C@@]3(O)CNCc1cccn1C (some centres unmarked) [compound 48] | 200 (≈ 438 µM) | 200 (≈ 438 µM) | 12.5 (≈ 27.4 µM) | > 200 | > 200 | 200 (≈ 438 µM) | 100 (≈ 219 µM) | 200 (≈ 438 µM) | –
CN[C@@H]1[C@H](O)[C@H](NC)C2O[C@]3(O)C(OC2[C@H]1O)O[C@H](C)C[C@@]3(O)CNCc1cn(C)c2ccccc12 (some centres unmarked) [compound 37] | 200 (≈ 395 µM) | 50 (≈ 98.7 µM) | 12.5 (≈ 24.7 µM) | 50 (≈ 98.7 µM) | > 200 | 12.5 (≈ 24.7 µM) | 25 (≈ 49.3 µM) | 50 (≈ 98.7 µM) | –
CN[C@@H]1[C@H](O)[C@H](NC)C2O[C@]3(O)C(OC2[C@H]1O)O[C@H](C)C[C@@]3(O)CNCC(C)c1ccccc1 (some centres unmarked) [compound 49] | 12.5 (≈ 26 µM) | 100 (≈ 208 µM) | 12.5 (≈ 26 µM) | 6.25 (≈ 13 µM) | > 200 | 12.5 (≈ 26 µM) | 12.5 (≈ 26 µM) | 50 (≈ 104 µM) | –
CN[C@@H]1[C@H](O)[C@H](NC)C2O[C@]3(O)C(OC2[C@H]1O)O[C@H](C)C[C@@]3(O)CNCCCc1ccco1 (some centres unmarked) [compound 38] | 100 (≈ 212 µM) | 6.3 (≈ 13.4 µM) | 6.25 (≈ 13.3 µM) | 50 (≈ 106 µM) | > 200 | 25 (≈ 53 µM) | 12.5 (≈ 26.5 µM) | 50 (≈ 106 µM) | –
CN[C@@H]1[C@H](O)[C@H](NC)C2O[C@]3(O)C(OC2[C@H]1O)O[C@H](C)C[C@@]3(O)CNCc1ccc(-c2ccccc2)cc1 (some centres unmarked) [compound 40] | 100 (≈ 189 µM) | 100 (≈ 189 µM) | 50 (≈ 94.4 µM) | 25 (≈ 47.2 µM) | > 200 | 6.25 (≈ 11.8 µM) | 12.5 (≈ 23.6 µM) | 100 (≈ 189 µM) | –
CN[C@@H]1[C@H](O)[C@H](NC)C2O[C@]3(O)C(OC2[C@H]1O)O[C@H](C)C[C@@]3(O)CNCc1ccc(CO)o1 (some centres unmarked) [compound 42] | > 200 | 25 (≈ 52.8 µM) | 50 (≈ 106 µM) | 200 (≈ 422 µM) | > 200 | 50 (≈ 106 µM) | 50 (≈ 106 µM) | 200 (≈ 422 µM) | –
